Experiment in all cases: inhibition of tumour cell growth, NCI panel, 48 h
Test [1] has as its system UO-31.
Test [2] deals with NCI-H226.
Test [3] has as its system NCI/ADR-RES.
The test system of test [4] is OVCAR-3.
Test [5] concerns CAKI-1.
For test [6], the system named is HL-60.
Test [7] has as its system NCI-H23.
Test [8] concerns T47D.
Test [9] concerns TK-10.
Test [10] concerns SK-MEL-28.
Test [11] has as its system SK-OV-3.
Test [12] concerns SNB-19.
The subject of test [13] is SF-268.
Test [14] concerns BT-549.
Test [15] concerns RPMI-8226.
Test [16] has as its system SK-MEL-5.
The test system of test [17] is HOP-62.
The subject of test [18] is LOX IMVI.
The subject of test [19] is DU-145.
The test system of test [20] is RXF 393.

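Five compound concentrations were applied to cells in 96-well plates for 48 hours; endpoints were derived by simple linear interpolation of the resulting dose-response curve. GI50: concentration for 50% inhibition of growth.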 Calls of active or inactive are those of the source. No stated cut-off is given here; in the data, active = GI50 up to about 1.1 µM and inactive = higher. Square brackets hold non-standard residues; d marks the D form. Peptide text beside a SMILES is read from it. * marks the point of attachment. Boc = CC(C)(C)OC(=O)*; OBn = c1ccc(CO*)cc1 Some results are limits rather than exact numbers.

Eight molecules from ChEMBL document CHEMBL1201862, “PubChem BioAssay data set” (2004) can be followed below.

As for `C=CCOc1ccccc1C1(O)c2ccccc2C2=NCCCN21` (configuration not stated), the GI50 was > 100 µM (inactive) in test [1]; 31.8 µM (inactive) in test [2]; > 100 µM (inactive) in test [3]; 22.2 µM (inactive) in test [4]; > 100 µM (inactive) in [5]; 26.8 µM (inactive) in [6]. Also, the GI50 in test [7] was 30.8 µM (inactive); in test [8], > 100 µM (inactive); in test [9], 90.8 µM (inactive); in [10] it was 20.4 µM (inactive); in test [11], > 100 µM (inactive); in [12] it was 33.5 µM (inactive). In addition, the GI50 was > 100 µM (inactive) in [13]; 81.1 µM (inactive) in test [14]; 35.6 µM (inactive) in [15]; 25.6 µM (inactive) in [16]; 18.9 µM (inactive) in [17]; 38.1 µM (inactive) in test [18]. Also, the GI50 in [19] was 57.9 µM (inactive).

Take `C[C@@H](NC(=O)CNC(=O)OC(C)(C)C)C(=O)N[C@@H](Cc1ccccc1)C(=O)OCc1ccccc1` (Boc-Gly-[dA]-Phe-OBn): the GI50 in test [1] is 51.2 µM (inactive); in [2] it was 51.1 µM (inactive); in test [3], > 100 µM (inactive); in [5] it was > 100 µM (inactive); in test [6], 35.1 µM (inactive); in test [7], > 100 µM (inactive). Also, the GI50 in test [8] is 63.4 µM (inactive); in test [9], > 100 µM (inactive); in [10], 20.1 µM (inactive); in test [11], > 100 µM (inactive); in test [12], > 100 µM (inactive); in test [13], 89.1 µM (inactive). Further, the GI50 in test [14] was > 100 µM (inactive); in test [20], 32 µM (inactive); in test [16] it was 22.8 µM (inactive); in [18], 20.6 µM (inactive); in test [19], > 100 µM (inactive).

As for `CCOC(=O)C1C(=O)CC(C)(O)C(C(=O)OCC)C1c1ccc(OC)cc1` (configuration not stated), the GI50 is > 100 µM (inactive) in [1]; 1.6 µM (inactive) in test [2]; > 100 µM (inactive) in [3]; > 100 µM (inactive) in test [4]; > 100 µM (inactive) in test [5]; > 100 µM (inactive) in [6]. For the same molecule, the GI50 in test [7], in test [8], in test [9], in [10], in test [12] and in [13] was > 100 µM (inactive) each time. Further, the GI50 in [14], in test [15], in test [20], in [16], in test [17] and in test [18] was > 100 µM (inactive) in each case. Further, the GI50 in [19] was > 100 µM (inactive).

For `CCOC(=O)C(CC(C)C)NC(=O)CSc1nnc(COc2ccc(Cl)cc2)n1-c1ccccc1` (configuration not stated), the GI50 was 1.86 µM (inactive) in test [1]; 22.4 µM (inactive) in test [2]; 20.5 µM (inactive) in test [3]; 10.5 µM (inactive) in test [4]; 21 µM (inactive) in test [6]; 16 µM (inactive) in [7]. For the same molecule, the GI50 in [8] was 14.4 µM (inactive); in [9] it was 17.9 µM (inactive); in [10] it was 16.7 µM (inactive); in [11], 27.2 µM (inactive); in [12], 17.3 µM (inactive); in test [13], 18.2 µM (inactive). Moreover, the GI50 in [14] is 17.7 µM (inactive); in [15], 16.4 µM (inactive); in test [20], 16.6 µM (inactive); in test [16] it was 17.1 µM (inactive); in [17], 19.4 µM (inactive); in test [18], 14.9 µM (inactive). In addition, in test [19], the GI50 was 17.1 µM (inactive).

Consider `Oc1cc(-c2ccccc2)nc2c(S)cccc12`, for which the GI50 was 17.2 µM (inactive) in test [2]; > 100 µM (inactive) in test [3]; > 100 µM (inactive) in test [4]; 97.9 µM (inactive) in test [6]; > 100 µM (inactive) in [7]; 29 µM (inactive) in [8]. Moreover, the GI50 in [9], in [10], in [11], in test [12], in test [13] and in [14] was > 100 µM (inactive) in each case. For the same molecule, the GI50 in [15] was > 100 µM (inactive); in [20], 35.9 µM (inactive); in test [16], 37.1 µM (inactive); in test [17], > 100 µM (inactive); in [19], > 100 µM (inactive).

For the molecule `CCCCC(=O)c1c(O)ccc2c(C)cc(=O)oc12`, the GI50 in test [1] was 24.8 µM (inactive); in test [2], > 100 µM (inactive); in [3] it was 55.7 µM (inactive); in [4], > 100 µM (inactive); in test [5], 68.9 µM (inactive); in test [6], > 100 µM (inactive). In addition, the GI50 is 99.8 µM (inactive) in [7]; 14.8 µM (inactive) in [8]; > 100 µM (inactive) in test [9]; > 100 µM (inactive) in test [10]; > 100 µM (inactive) in [12]; > 100 µM (inactive) in test [13]. The GI50 in test [14] is 37.6 µM (inactive); in [15], 52 µM (inactive); in test [20], 49.1 µM (inactive); in [16], 53.5 µM (inactive); in test [17], > 100 µM (inactive); in test [18], 93.8 µM (inactive). The GI50 in test [19] was 64.9 µM (inactive).

Take `N#CC(C#N)=C1C(=Cc2ccc(OCCCCCCCCCCSSCCCCCCCCCCOc3ccc(C=C4C(=C(C#N)C#N)c5ccccc5C4=C(C#N)C#N)cc3)cc2)C(=C(C#N)C#N)c2ccccc21`: the GI50 in test [1] is 18.2 µM (inactive); in test [2], 24 µM (inactive); in test [3], 19.3 µM (inactive); in test [4], 29.7 µM (inactive); in test [5], 24.7 µM (inactive); in test [6], 0.0465 µM (active). For the same molecule, the GI50 is 17.3 µM (inactive) in test [7]; 31.6 µM (inactive) in test [8]; 47.4 µM (inactive) in test [9]; 21.6 µM (inactive) in [10]; 19.5 µM (inactive) in test [13]; 17 µM (inactive) in test [14]. Also, the GI50 in test [15] was 39.2 µM (inactive); in test [20] it was 22.6 µM (inactive); in [16], 22.1 µM (inactive); in test [17], 22.5 µM (inactive); in test [18], 18.5 µM (inactive); in test [19], 22 µM (inactive).

`C=CCC1(c2ccc(OC)cc2)C=CC(=O)CC1` (configuration not stated): the GI50 in [1] was > 100 µM (inactive); in test [2], > 100 µM (inactive); in test [3], 33.2 µM (inactive); in test [4] it was > 100 µM (inactive); in test [5], > 100 µM (inactive); in test [6] it was 38.9 µM (inactive). The GI50 in [7], in [8], in test [9], in [10], in [11] and in [12] was > 100 µM (inactive) in each case. Also, the GI50 in test [13] is > 100 µM (inactive); in [14], 70.6 µM (inactive); in [20], 94 µM (inactive); in test [16] it was > 100 µM (inactive); in [17], > 100 µM (inactive); in [18], > 100 µM (inactive). Also, the GI50 in [19] is > 100 µM (inactive).
